# Reference: patent US20260256826A1, “PREPARATION METHOD AND APPLICATION OF ZINC HYALURONATE” (BLOOMAGE BIOTECHNOLOGY CORPORATION LIMITED, priority 2022, published 2026)
# Assays:
# [1] = Hydroxyl radical scavenging, salicylic acid method; settings: 0.5% solution
# Text: The salicylic acid method was used to determine the hydroxyl radical scavenging ability of zinc hyaluronate samples. A certain amount of H2O2 and FeSO4 were mixed to produce hydroxyl radicals by Fenton reaction. Adding salicylic acid to the reaction system can capture hydroxyl radicals and produce 3-hydroxysalicylic acid and 5-hydroxysalicylic acid. Both products have strong absorption at 510 nm. The reaction equation is as follows: The addition of the sample will compete with salicylic acid for the reaction with OH, thereby reducing the production of 3-hydroxysalicylic acid and 5-hydroxysalicylic acid. The fixed reaction time method was used to measure the absorbance of the reaction solution at 510 nm and compare it with the blank solution to determine the scavenging effect of the analyte on hydroxyl free radicals. The scavenging rate is calculated as follows: In the formula, S is the scavenging rate, A0 is the absorbance value of the blank control, Ax is the absorbance value when the sample is added, and Ax0 is the absorbance value without adding the color developer.
# [2] = Superoxide anion scavenging, pyrogallol self-oxidation method; settings: 0.5% solution
# Experimental: The pyrogallol self-oxidation method was used. Under weakly alkaline conditions, pyrogallol can undergo self-oxidation reaction to generate superoxide anions and a colored intermediate product with a characteristic absorption peak at 320 nm. In the initial trial stage, the amount of intermediate product is linearly related to time. Since the self-oxidation rate depends on the concentration of superoxide anions, when a superoxide anion scavenger is added, it can react quickly with superoxide anions to inhibit the self-oxidation reaction, thereby preventing the accumulation of intermediates and weakening the light absorption of the solution at 320 nm. Therefore, the scavenging effect of the scavenger on superoxide anions can be evaluated by measuring the […] value. scavenging rate of superoxide anion free radical (%)=(A0-Ax)/A0×100%
structure (smiles),measurement,setting,value
CC(=O)[O-].CC(=O)[O-].[Zn+2] [zinc acetate dihydrate],hydroxyl free radical scavenging ability (in words),[1],significantly lower than that of HA-Zn
same,superoxide anion free radical scavenging ability (in words),[2],significantly lower than that of HA-Zn
